{"source": "paper PMC10745422", "about": "“Absorption, Distribution, Metabolism, and Excretion of [^14C]BS1801, a Selenium-Containing Drug Candidate, in Rats” (Molecules, 2023)", "key": {"albumin": {"tested_on": "albumin", "set-up": "method as in PMID 17363345, PMID 7945407", "conditions": "cited from earlier work"}, "[1]": {"test": "Mass balance: excretion of radioactivity in urine and feces after a single oral dose of [^14C]BS1801", "type": "in vivo, Sprague–Dawley (SD, Rattus norvegicus) rats", "protocol": "(§1) BS1801 and [^14C]BS1801 were prepared in 0.5% sodium carboxymethyl cellulose solution at a target concentration of 10 mg/mL (10 μCi/mL). The radioactivity of [^14C]BS1801 was measured using a liquid scintillation counter (LSC) (Hidex, Turku, Finland) before and after administration, and a single dose of 10 mL/kg was administered orally.\nThree male and three female SD rats were housed individually in metabolic cages. Urine samples were collected from each rat at predose and 0–8, 8–24, 24–48, 48–72, 72–96, 96–120, 120–144, and 144–168 h postdose. When each urine sample was collected, the metabolic cage was flushed with a small amount of water for 0–72 h and methanol/water (50:50, v:v) for 72–168 h, and the flushing solution was added to the urine sample for the corresponding period. Fecal samples were also collected at predose and 0–24, 24–48, 48–72, 72–96, 96–120, 120–144, and 144–168 h postdose. Urine and fecal samples were weighed and recorded during each collection period. All samples were stored at −20 °C for testing.\n(§2) Samples of urine (100 μL), bile (30 μL), and plasma (100 μL from the tissue distribution study) were weighed and added to 15 mL scintillation solution. Among them, urine and bile samples were duplicated, and plasma samples were in singlicate. The radioactivity was measured directly via LSC.\n(§3) Approximately three times the weight of methanol/water (50:50, v:v) was added to each fecal sample and homogenized with a homogenizer (SKGZ, Shanghai Biheng, Shanghai, China). Approximately 0.2~0.3 g of the fecal homogenate was weighed in a combustion boat, and dried overnight. Blood samples (100 μL) and tissue samples (approximately 0.1 g) were weighed into burning boats. After the samples were completely dried, they were combusted using a Biological Sample Oxidizer (OTCS-11/1, Shanghai Yixing, Shanghai, China). The ^14CO2 generated was captured with 15 mL alkaline scintillation solution; then, the radioactivity was measured using LSC."}, "[2]": {"test": "Biliary excretion of radioactivity in bile duct cannulated (BDC) rats", "type": "in vivo, Sprague–Dawley (SD, Rattus norvegicus) rats", "conditions": "BDC SD rats, single intragastric 100 mg/kg, within 72 h", "protocol": "as §1\nBile duct cannulation (BDC) was performed in 3 male and 3 female SD rats before drug administration. After the operation, the wounds were wiped with iodophor for 2 days, and painkillers were administered appropriately. The state of the rats was observed daily, and the drug was administered only when no abnormality was observed within 2 days. Bile was collected before and 0–4, 4–8, 8–24, 24–48, and 48–72 h after dosing. The weights of the bile samples were recorded, and the samples were stored at −20 °C until testing.\nas §2"}, "[3]": {"test": "Tissue distribution of radioactivity after a single oral dose of [^14C]BS1801", "type": "in vivo, Long–Evans (LE, Rattus norvegicus) rats", "conditions": "total radioactivity", "protocol": "as §1\nTwenty-four LE rats (12 of each sex) were used for tissue distribution studies. Three male and three female rats were sacrificed through abdominal aortic bleeding at 2, 10, 48, and 96 h after administration. Approximately 1/5 of the blood was stored frozen at −20 °C, and the remaining blood was centrifuged (3500× g, 5 min, 4 °C) to obtain plasma. The brain, heart, lung, liver, stomach wall, spleen, kidney, muscle, pigmented fat, ovary, womb, testis, bladder wall, pancreas, small intestine wall, large intestine wall, eye, pigmented skin, thymus, spinal cord, and marrow were also collected. The tissues were washed with saline, dried, and stored at −20 °C until testing.\nas §2, §3"}, "[4]": {"test": "Metabolite radio-profiling and identification in pooled plasma, urine, feces and bile (UHPLC-β-RAM/UV/QE MS)", "type": "in vivo, Sprague–Dawley (SD, Rattus norvegicus) rats", "protocol": "Three SD rats of each sex were used to obtain plasma samples. […] All samples were stored at −20 °C for analysis.\nThen, 3 mL of methanol/water (50:50, v:v) was slowly added to the pooled plasma (1 mL), followed by vortexing for 1 min and sonication for 10 min twice. Then, the upper extract and the lower precipitate were separated by centrifugation (5000 rpm, 10 min). The supernatant was transferred to another new centrifuge tube. Then, 1 mL of water was added to the precipitate, vortexed for 1 min, and sonicated for 10 min. Then, 2 mL of methanol/acetonitrile (50:50, v:v) was added to the mixture, two vortexes were performed for 1 min, and the mixture was ultrasonicated for 10 min, followed by centrifugation (5000 rpm, 10 min). The two-times supernatant extracts were combined and dried under a nitrogen stream and finally redissolved with acetonitrile/water (20:80, v:v). The recoveries of extraction and reconstitution processes were measured via LSC.\nThe pooled urine was vortexed and centrifuged (5000 rpm, 10 min). After centrifugation, the supernatant was dried under a nitrogen stream and then redissolved in acetonitrile/water (20:80, v:v).\nThe pooled fecal homogenate (1 g) was extracted by using the same method as for the plasma. The supernatant was then evaporated under a nitrogen stream and redissolved in 300 μL acetonitrile/water (20:80, v:v).\nAn ACQUITY UPLC BEH Pheny column (100 × 2.1 mm, 1.7 μm) with a Phenomenex KrudKatcher Ultra HPLC In-Line Filter guard column (2 µm, Depth Filter × 0.004 in ID) was used to perform metabolite radio-profiling and characterization on the Vanquish UHPLC system, which was combined with a QExactive Plus mass spectrometer (Thermo, Waltham, MA, USA) containing an electrospray ionization (ESI) source. The column temperature was 40 °C, and the flow rate was 0.45 mL/min. The mobile phases contained 5 mM ammonium acetate with 0.1% formic acid in water (A) and acetonitrile (B). […] The mass spectrometer was operated in positive (+ESI) mode with a m/z 100–1500 Da scanning range. The optimized MS parameters were as follows: sheath gas, 35 L/min; auxiliary gas, 10 L/min; capillary temperature, 320 °C; and spray voltage, 3.8 kV. Data acquisition was performed using Xcalibur 4.1 software (Thermo, Waltham, MA, USA), and data analysis was accomplished using Compound Discoverer software 3.3 SP2 (Thermo, Waltham, MA, USA).\nThe extracted plasma, urine, feces, and bile samples were separated via UHPLC and detected using an online/offline radioactivity detector to obtain the corresponding radioactive metabolite profiles. Due to low radioactivity of plasma, the UHPLC eluent was collected using a UHPLC fraction collector (Thermo, Waltham, MA, USA) over time (10 s/well) on Deepwell LumaPlateTM 96-well plates. After evaporation via a vacuum centrifuge concentrator, the radioactivity was determined with an offline Sense Beta detector (1 min/well, Hidex, Turku, Finland). For the urine, feces, and bile samples, the UHPLC eluent was analyzed using an online radioactivity detector β-RAM. Radioactive metabolite profiling was integrated to obtain the radio-chromatogram with Laura 6.0.5.101 software (Lablogic, Sheffield, UK). The percentage of each metabolite in urine, feces, and bile (%dose) and the ratio of metabolites in the plasma (% area under the curve, %AUC) were calculated."}, "human serum albumin": {"tested_on": "human serum albumin", "set-up": "method as in PMID 35149420", "conditions": "covalent binding, unstable; cited from earlier work"}, "[5]": {"conditions": "SD rats, single oral 100 mg/kg, 0 to 168 h"}, "[6]": {"conditions": "0–96 h pooled female SD rat urine"}, "[7]": {"conditions": "AUC0–72h pooled female SD rat plasma"}, "[8]": {"conditions": "AUC0–72h pooled male SD rat plasma"}}}
{"smiles": "O=c1c2ccccc2[se]n1CCn1[se]c2ccccc2c1=O", "note": "[BBSKE, 1,2-[bis(1,2-benzisoselenazolone-3 (2H)-ketone)]-ethane]", "values": [{"measurement": "binding rates with albumin", "setting": "albumin", "value": "high"}]}
{"smiles": "O=c1c2ccccc2[se]n1CCCCn1[se]c2ccccc2c1=O", "note": "[BS1801]", "values": [{"measurement": "absorption in rats (inferred from urine and bile recovery)", "setting": "[1]; SD rats, single oral 100 mg/kg", "value": "not well absorbed"}, {"measurement": "radioactive recovery in either urine or bile", "setting": "[1]; SD rats, single oral 100 mg/kg", "value": "less than 1 % of the dose"}, {"measurement": "mean radioactive recovery in urine and feces", "setting": "[1]; SD rats, single oral 100 mg/kg (100 μCi/kg), 0 to 168 h", "value": 93.39, "unit": "%"}, {"measurement": "cumulative excretion of radioactive substances in feces", "setting": "[1]; [5]", "value": "92.77 % of the dose"}, {"measurement": "cumulative excretion of radioactive substances in urine", "setting": "[1]; [5]", "value": "0.62 % of the dose"}, {"measurement": "mean radioactive recovery in urine and feces", "setting": "[1]; SD rats, single oral 100 mg/kg, within 0–48 h", "value": 91.57, "unit": "%"}, {"measurement": "cumulative excretion of radioactive substances in feces", "setting": "[1]; female SD rats", "value": "93.22 % of the dose"}, {"measurement": "cumulative excretion of radioactive substances in feces", "setting": "[1]; male SD rats", "value": "92.32 % of the dose"}, {"measurement": "recovery of radioactivity in bile", "setting": "[2]", "value": 0.58, "unit": "%"}, {"measurement": "ratio of AUC0–96h of brain to that of plasma, rank among analyzed tissues", "setting": "[3]; brain, LE rats", "value": "the lowest"}, {"measurement": "ratio of tissue AUC0–96h to plasma AUC0–96h", "setting": "[3]; eyes, male LE rats", "value": 5.35}, {"measurement": "average ratio of blood AUC0–96h to plasma AUC0–96h", "setting": "[3]; female LE rats", "value": 0.45}, {"measurement": "ratio of tissue AUC0–96h to plasma AUC0–96h", "setting": "[3]; large intestine, female LE rats", "value": 16.82}, {"measurement": "ratio of tissue AUC0–96h to plasma AUC0–96h", "setting": "[3]; large intestine, male LE rats", "value": 7.48}, {"measurement": "ratio of tissue AUC0–96h to plasma AUC0–96h", "setting": "[3]; liver, female LE rats", "value": 6.59}, {"measurement": "ratio of tissue AUC0–96h to plasma AUC0–96h", "setting": "[3]; liver, male LE rats", "value": 11.80}, {"measurement": "average ratio of blood AUC0–96h to plasma AUC0–96h", "setting": "[3]; male LE rats", "value": 0.73}, {"measurement": "ratios of other tissues AUC0–96h to plasma AUC0–96h", "setting": "[3]; other tissues, all rats", "value": "lower than 5.00"}, {"measurement": "ratio of tissue AUC0–96h to plasma AUC0–96h", "setting": "[3]; stomach, male LE rats", "value": 10.60}, {"measurement": "amount in urine", "setting": "[4]; [6]", "value": "not detected"}, {"measurement": "amount in urine", "setting": "[4]; 0–96 h pooled male SD rat urine", "value": "not detected"}, {"measurement": "share of total plasma radioactivity", "setting": "[4]; [7]", "value": "undetected"}, {"measurement": "share of total plasma radioactivity", "setting": "[4]; [8]", "value": "not detected"}, {"measurement": "detection of parent drug in bile", "setting": "[4]; SD rat bile", "value": "not detected"}, {"measurement": "unchanged drug in rat feces", "setting": "[4]; SD rat feces, male and female", "value": "more than 75.00 % of the dose"}, {"measurement": "recovery of radioactivity in the supernatant after protein precipitation of pooled plasma", "setting": "[4]; female SD rats", "value": 91.23, "unit": "%"}, {"measurement": "recovery of radioactivity in the supernatant after protein precipitation of pooled plasma", "setting": "[4]; male SD rats", "value": 105.85, "unit": "%"}, {"measurement": "amount in feces", "setting": "[4]; pooled female SD rat feces (0–48 h)", "value": "81.89 % of the dose"}, {"measurement": "amount in feces", "setting": "[4]; pooled male SD rat feces (0–48 h)", "value": "76.97 % of the dose"}, {"measurement": "binding to human serum albumin", "setting": "human serum albumin", "value": "rapidly and thoroughly"}]}
{"smiles": "C[Se]c1ccccc1C(=O)NCCCCNC(=O)c1ccccc1[Se]C", "note": "[M2]", "values": [{"measurement": "share of total plasma radioactivity", "setting": "[4]; [7]", "value": "81.33 % of the total plasma radioactivity"}, {"measurement": "share of total plasma radioactivity", "setting": "[4]; [8]", "value": "65.41 % of the total radioactivity"}]}
{"smiles": "C[Se]c1ccccc1C(=O)NCCCCN", "note": "[M286]", "values": [{"measurement": "amount in urine", "setting": "[4]; [6]", "value": "0.20 % of the dose"}, {"measurement": "amount in bile", "setting": "[4]; pooled 0–48 h male SD rat bile", "value": "less than 0.1 % of the dose"}]}
{"smiles": "O=c1c2ccccc2[se]n1-c1ccccc1", "note": "[ebselen, 2-phenyl-1,2-benzisoselenazol-3(2H)-one]", "values": [{"measurement": "binding rates with albumin", "setting": "albumin", "value": "high"}]}
